Each structure is given as a SMILES string.

The values that follow come from patent US8461410B2, “Wound dressing materials comprising complexes of anionic polysaccharides with silver” (Ethicon, Inc., priority 2002, dated 2013).

Experiment [1] relates to Staphylococcus aureus. Description: Zone of inhibition test of bactericidal activity (Procedure 1). It is filed as cell-based. As to conditions: 2 cm x 2 cm sample on inoculated DSA plate, 37° C., read every 24 hours; FIGS. 1 and 2.
Protocol: (§1) Six 2 cm×2 cm squares of each sample were cut out in sterile conditions. On day one of the experiment cultures of both Pseudomonas aeruginosa and Staphylococcus aureus were incubated aerobically at 37° C. for 24 hours on Diagnostic Sensitivity Agar (DSA). After 24 hours test samples were each placed on a DSA plate and were immediately wetted with 0.5 mls of a buffer solution. Three squares of sample were placed on plates inoculated with Pseudomonas aeruginosa and three were placed on plates inoculated with Staphylococcus aureus. The plates were then incubated at 37° C. for 24 hours. The zone of inhibited growth around the sample was then measured using callipers and the test sample was placed on a new inoculated DSA plate. A swab test was carried out on the area beneath the sample to determine if the sample was bacteriostatic if not bactericidal by smearing the swab on a DSA plate and incubating it for 24 hours and then examining the growth. The samples were transferred onto fresh inoculated plates with the above procedure being carried out every 24 hours for 72 hours as long as the samples remain intact.
(§2) As a negative control, a freeze dried sponge of 45% ORC/55% collagen without any silver was tested.
Experiment [2] concerns Pseudomonas aeruginosa. Described as above. It is filed as cell-based. To be noted: 2 cm x 2 cm sample on inoculated DSA plate, 37° C., read every 24 hours; FIG. 3.
Protocol: as §1, §2

For the compound `O=[N+]([O-])[O-].[Ag+]` [silver nitrate solution (0.5%), silver nitrate], the “bactericidal effect / zone of inhibition against Staphylococcus aureus” value in experiment [1] is recorded as “zones of inhibition were observed”. Besides, the “bactericidal effect / zone of inhibition against Pseudomonas aeruginosa” value in experiment [2] is on record as “zones of inhibition were observed”.
